Measured values as given in patent US8329645B2, “Polymyxin derivatives and uses thereof” (priority 2008, dated 2012).
In brackets after ≈: the same amount, converted by molar mass. Where a SMILES comes first, the peptide text is derived from it. Bridges are numbered along the chain shown (N, C = ends). [ ]: non-standard residue; d: D form. The star is where a group is joined. Octanoyl = CCCCCCCC(=O)*; Dab = NCC[C@H](N)C(=O)O

How the values were obtained:
A. baumannii ATCC 19606 = settings: ATCC 19606
Method: (§1) Polymyxin B sulfate (Sigma-Aldrich, St. Louis, Mo., USA) was used as a control. […] The bacterial test strains originated from ATCC (10 strains), CCUG (11 strains), and NCTC (3 strains). Fourteen (14) strains (the F-strains) were purchased from Mobidiag Ltd., Helsinki, Finland.
(§2) The inocula were prepared by adjusting the bacterial suspensions to a density equivalent to OD546 nm˜0.3 (˜10^8 CFU/ml˜0.5 McFarland) the yeast suspension to a density equivalent to OD546 nm˜0.75 (˜2×10^7 CFU/ml)._The suspensions were diluted to 10^7 CFU/ml. The plates were inoculated by using a Denley Multipoint Inoculator, 1 μl per spot corresponding to approx. 10^4 CFU/spot. Plates were incubated for 16-20 hours at 35° C.

A. baumannii F263 = settings: F263
Method: as §1, §2

A. baumannii F264 = settings: F264
Method: as §1, §2

C. freundii ATCC 8090 = settings: ATCC 8090
Method: as §1, §2

E. cloacae ATCC 23355 = settings: ATCC 23355
Method: as §1, §2

E. cloacae CCUG 52947 = settings: CCUG 52947
Method: as §1, §2

E. cloacae F230 = settings: F230
Method: as §1, §2

E. cloacae F231 = settings: F231
Method: as §1, §2

E. cloacae F232 = settings: F232
Method: as §1, §2

E. coli ATCC 25922 = settings: ATCC 25922
Method: as §1, §2

E. coli CCUG 41422 = tested on: E. coli CCUG 41422
Method: as §1, §2

E. coli CCUG 41424 = settings: CCUG 41424
Method: as §1, §2

E. coli CCUG 41425 = settings: CCUG 41425
Method: as §1, §2

E. coli CCUG 41427 = settings: CCUG 41427
Method: as §1, §2

E. coli CCUG 41429 = settings: CCUG 41429
Method: as §1, §2

E. coli CCUG 41432 = settings: CCUG 41432
Method: as §1, §2

E. coli F10 = settings: F10
Method: as §1, §2

E. coli F19 = settings: F19
Method: as §1, §2

E. coli F8 = settings: F8
Method: as §1, §2

E. coli F9 = settings: F9
Method: as §1, §2

E. coli IH3080 = settings: IH3080
Method: as §1, §2

E. coli NCTC 13352 = settings: NCTC 13352
Method: as §1, §2

E. coli NCTC 13353 = settings: NCTC 13353
Method: as §1, §2

K. oxytoca ATCC 13182 = settings: ATCC 13182
Method: as §1, §2

K. oxytoca CCUG 51683 = settings: CCUG 51683
Method: as §1, §2

K. pneumoniae F136 = settings: F136
Method: as §1, §2

K. pneumoniae F145 = settings: F145
Method: as §1, §2

P. aeruginosa ATCC 27853 = settings: ATCC 27853
Method: as §1, §2

P. aeruginosa CCUG 51971 = tested on: P. aeruginosa CCUG 51971
Method: as §1, §2

P. aeruginosa F58 = settings: F58
Method: as §1, §2

S. aureus ATCC 25923 = settings: ATCC 25923
Method: as §1, §2

[1] = tested on: S. maltophilia ATCC 17444; settings: ATCC 17444
Method: as §1, §2

S. marcescens ATCC 8100 = settings: ATCC 8100
Method: as §1, §2

CCCCCCCC(=O)N[C@H](C(=O)N[C@H](CO)C(=O)N[C@H]1CCNC(=O)[C@H]([C@@H](C)O)NC(=O)[C@H](CCN)NC(=O)[C@H](CCN)NC(=O)[C@H](CC(C)C)NC(=O)[C@@H](Cc2ccccc2)NC(=O)[C@H](CCN)NC1=O)[C@@H](C)O [NAB 739, OA-Thr-DSer-cy[Dab-Dab-DPhe-Leu-Dab-Dab-Thr-]] (Octanoyl-T[dS][Dab][Dab][dF]L[Dab][Dab]T; lactam 3-C)
MIC (A. baumannii ATCC 19606): 8 µg/mL (≈ 7.43 µM)
MIC (A. baumannii F263): 4 µg/mL (≈ 3.72 µM)
MIC (A. baumannii F264): 4 µg/mL (≈ 3.72 µM)
MIC (C. freundii ATCC 8090): 2 µg/mL (≈ 1.86 µM)
MIC (E. cloacae ATCC 23355): 2 µg/mL (≈ 1.86 µM)
MIC (E. cloacae CCUG 52947): 2 µg/mL (≈ 1.86 µM)
MIC (E. cloacae F230): 2 µg/mL (≈ 1.86 µM)
MIC (E. cloacae F231): 2 µg/mL (≈ 1.86 µM)
MIC (E. cloacae F232): 2 µg/mL (≈ 1.86 µM)
MIC (E. coli ATCC 25922): 1 µg/mL (≈ 0.929 µM)
MIC (E. coli CCUG 41422): 1 µg/mL (≈ 0.929 µM)
MIC (E. coli CCUG 41424): 1 µg/mL (≈ 0.929 µM)
MIC (E. coli CCUG 41425): 1 µg/mL (≈ 0.929 µM)
MIC (E. coli CCUG 41427): 1 µg/mL (≈ 0.929 µM)
MIC (E. coli CCUG 41429): 1 µg/mL (≈ 0.929 µM)
MIC (E. coli CCUG 41432): 1 µg/mL (≈ 0.929 µM)
MIC (E. coli F10): 1 µg/mL (≈ 0.929 µM)
MIC (E. coli F19): 0.5 µg/mL (≈ 0.465 µM)
MIC (E. coli F8): 1 µg/mL (≈ 0.929 µM)
MIC (E. coli F9): 1 µg/mL (≈ 0.929 µM)
MIC (E. coli IH3080): 1 µg/mL (≈ 0.929 µM)
MIC (E. coli NCTC 13352): 1 µg/mL (≈ 0.929 µM)
MIC (E. coli NCTC 13353): 1 µg/mL (≈ 0.929 µM)
MIC (K. oxytoca ATCC 13182): 2 µg/mL (≈ 1.86 µM)
MIC (K. oxytoca CCUG 51683): 2 µg/mL (≈ 1.86 µM)
MIC (K. pneumoniae F136): 1 µg/mL (≈ 0.929 µM)
MIC (K. pneumoniae F145): 2 µg/mL (≈ 1.86 µM)
MIC (P. aeruginosa ATCC 27853): 8 µg/mL (≈ 7.43 µM)
MIC (P. aeruginosa CCUG 51971): 8 µg/mL (≈ 7.43 µM)
MIC (P. aeruginosa F58): 8 µg/mL (≈ 7.43 µM)
MIC (S. aureus ATCC 25923): >32 µg/mL
MIC [1]: 16 µg/mL (≈ 14.9 µM)
MIC (S. marcescens ATCC 8100): >32 µg/mL
